Assay results published in patent US20160333019A1, “SYNTHESIS AND FORMULATIONS OF PORPHYRIN COMPOUNDS” (Aeolus Sciences, Inc., priority 2013, published 2016).

Experiments:
Type in all cases: physicochemical
[1] = Study 2: 75 mg/mL Formula (VI) in WFI at pH 7.0, 14 days at 60° C.
Procedure: The samples were filled in glass vials and capped with an air headspace. All samples were tested and evaluated for physicochemical stability under the storage conditions at 2-8 and 60° C. after 0, 3, 7 and 14 days.
About 10 g of WFI was placed in the container including a stir bar.
The pH was measured at approximately hourly intervals and at about 16 hours and 24 hours. At the end of the 16-24 hour hold/mix, the pH of the solution was adjusted to pH 7.0 with either HCl or NaOH and mixed for approximately 15 minutes. The solution was filtered through a PVDF, 0.22 μm filter into a clean container and its pH measured.
The pH was measured at 30 minutes then hourly thereafter for the 16-24 hour time period. Once the solution pH and osmolality stabilized, the air sparging was stopped. The solution was adjusted to pH 7.0 with either HCl or NaOH and mixed for about 15 minutes. The solution was filtered through a PVDF, 0.22 μm filter into clean container and the pH measured.
Both samples were then stored at 60° C. and samples taken at 0, 3, 7 and 14 days from both containers and to measure pH. […]

[2] = Study 4: 75 mg/mL Formula (VI) in WFI at pH 7.0 under ICH storage temperatures; settings: after 1 month
Procedure: About 10 g of WFI was placed in the container including a stir bar. […] The pH was measured and the solution was mixed at room temperature for 16-24 hours. At the end of the 16-24 hour hold/mix, the pH of solution was adjusted to pH 7.0 with either HCl or NaOH and mixed for about 15 minutes. The solution was filtered through a PVDF, 0.22 μm filter by discarding about 1 mL prior to placing about 4-5 mL into each of four separate clean containers (A, B, C, D). The pH of the samples was then measured. Solution A was stored at 2-8° C., solution B at 25° C., solution C at 30° C. and solution D at 40° C. […]

[3] = Study 5: 75 mg/mL Formula (VI) in WFI at various pH under ICH storage temperatures; settings: for pH change: 75 mg/mL at pH 6
Procedure: It was noticeable from Study 2 that drug stability was dependent on the pH. The lower the pH, the greater the chemical stability. […] An accelerated 60° C. storage temperature was also accessed in order to compare and generate a pH-stability profile of drug in water.
(§1) About 10 g of WFI was placed in the container including a stir bar. […] The pH was measured and the solution was mixed at room temperature for 16-24 hours. At the end of the 16-24 hour hold/mix, the pH of solution was adjusted to pH 4.0 with either HCl or NaOH and mixed for about 15 minutes. The solution was filtered through a PVDF, 0.22 μm filter by discarding about 1 mL prior to placing about 4-5 mL into each of four separate clean containers (A, B, C, D). The pH of the samples was then measured. Solution A was stored at 2-8° C., solution B at 25° C., solution C at 30° C. and solution D at 40° C. A sample was removed from each container after 3, 7 and 14 days the pH measured.
as §1, with “5.0” for “4.0”
as §1, with “6.0” for “4.0”

[4] = pH titration of 75 mg/mL Formula (VI) in WFI with 1.0N HCl; settings: 75 mg/mL in water titrated with hydrochloric acid
Procedure: A solution of 75 mg/mL compound was prepared by dissolving in WFI and gently mixing for 16-24 hours prior to the titration. The titration of compound with a strong acid provided information for this compound in terms of “apparent” pKa.
In addition, this mixing would allow oxidation of trace Mn (II) compound to the higher oxidation state of Mn (III). The drug solution was titrated with 1.0 N HCl at 30 μL increments.
About 10 g of WFI was placed in the container including stir bar. […] The solution was them mixed at room temperature for 16-24 hours. At the end of the 16-24 hour hold/mix, the solution was titrated from its starting pH of about 9 down to pH 3 using 1N HCl.
Due to a big molecular structure (MW=1033), the sample preparation required an unusually long mixing process for 16-24 hours in order to complete the dissociation of drug and the oxidation of trace […] compound into a higher oxidation state of Mn (III). This mixing process was crucial to achieve the final pH equilibrium.

[5] = 75 mg/mL, 60° C. for 14 days, within pH profile range 4.1-6.5

pH decrease ([1]; 75 mg/mL in water at pH 7.0, 60° C., after 14 days): 1-2 pH units
pH stability ([1]; 75 mg/mL in water at pH 7.0, refrigerated condition): relatively stable
chemical stability, air sparged versus non-sparged sample ([1]; 75 mg/mL in water pH 7, 60° C.): better stability
degradation lower than that from the control sample ([1]; 75 mg/mL in water pH 7, all samples stored at 60° C., after 14 days): 3-6%
chemical stability ([2]; 75 mg/mL in water pH 7, each storage condition): No significant change
pH decrease ([2]; 75 mg/mL pH 7, 25° C.): approximately 0.3 pH units
pH decrease ([2]; 75 mg/mL pH 7, 30° C.): ~0.5 pH units
pH decrease ([2]; 75 mg/mL pH 7, 40° C.): ~1.1 pH units
osmolality ([2]; 75 mg/mL pH 7, all samples): 270-276 mOsm/kg
pH change ([2]; 75 mg/mL pH 7, refrigerated sample): ≤ 0.1 pH unit
pH variation ([3]; 75 mg/mL at pH 4 and 5, all storage conditions, after 14 days): ≤ 0.1 pH unit
pH decrease ([3]; 75 mg/mL at pH 5, 60° C., after 14 days): ~0.2 pH units
pH change ([3]; 2-8° C., after 14 days): 0.7 pH units
pH change ([3]; 25° C., after 14 days): 0.5 pH units
pH change ([3]; 40° C., after 14 days): −0.1 pH units
pH change ([3]; 60° C., after 14 days): −0.9 pH units
change of purity assays ([3]; 75 mg/mL in water, samples at pH between 4.1 and 6.8, after 14 days): No significant changes
decrease in drug purity assay ([3]; 75 mg/mL, 60° C. for 14 days, increase of pH between 4.1 and 6.5): ~5%
increase of degradant at RRT 1.56-1.62 [3, 5]: ~8 folds
level of degradant at RRT 1.56-1.62 [3, 5]: 0.4-3.2%
decrease of purity assay ([3]; 60° C. samples, between pH 4.1 and 5.2): ~3%
osmolality ([3]; pH 4 sample, 60° C. storage): 292 mOsm/kg
osmolality ([3]; pH 4 samples, 2-8, 25 and 40° C., after 14 days): 277-280 mOsm/kg
osmolality ([3]; pH 5 sample, 60° C. storage): 302 mOsm/kg
osmolality ([3]; pH 5 samples, 2-8, 25 and 40° C., after 14 days): 273-275 mOsm/kg
osmolality ([3]; pH 6 sample, 60° C. storage): 283 mOsm/kg
osmolality ([3]; pH 6 samples, 2-8, 25 and 40° C., after 14 days): 269-272 mOsm/kg
"apparent" pKa [4]: 9.02
Substance: [5,10,15,20-tetrakis(1,3-diethylimidazolium-2-yl)porphyrinato]manganese(III) chloride hydrate complex [Formula (VI)]
dependence of drug stability on pH ([1]; 75 mg/mL in WFI, 2-8 and 60° C., 0, 3, 7 and 14 days): The lower the pH, the greater the drug stability
